This is an account of results in PubChem BioAssay AID437 (SGCStoCompounds, 2006).

In this assay the target is Inositol-trisphosphate 3-kinase C (Homo sapiens) (UniProt Q96DU7). As to the kind of experiment: ITPKC binders by thermal stabilisation, biophysical, DSF, SYPRO orange, purified human protein (AID 437). The settings on record: at 20 µM, protein 5.9 µM, buffer 300 mM NaCl, 50 mM Hepes, 10% glycerol, 2 mM TCEP pH 7.5, stronger effect = higher value.
Sequence of Inositol-trisphosphate 3-kinase C (Homo sapiens) (Q96DU7 whole entry, looked up): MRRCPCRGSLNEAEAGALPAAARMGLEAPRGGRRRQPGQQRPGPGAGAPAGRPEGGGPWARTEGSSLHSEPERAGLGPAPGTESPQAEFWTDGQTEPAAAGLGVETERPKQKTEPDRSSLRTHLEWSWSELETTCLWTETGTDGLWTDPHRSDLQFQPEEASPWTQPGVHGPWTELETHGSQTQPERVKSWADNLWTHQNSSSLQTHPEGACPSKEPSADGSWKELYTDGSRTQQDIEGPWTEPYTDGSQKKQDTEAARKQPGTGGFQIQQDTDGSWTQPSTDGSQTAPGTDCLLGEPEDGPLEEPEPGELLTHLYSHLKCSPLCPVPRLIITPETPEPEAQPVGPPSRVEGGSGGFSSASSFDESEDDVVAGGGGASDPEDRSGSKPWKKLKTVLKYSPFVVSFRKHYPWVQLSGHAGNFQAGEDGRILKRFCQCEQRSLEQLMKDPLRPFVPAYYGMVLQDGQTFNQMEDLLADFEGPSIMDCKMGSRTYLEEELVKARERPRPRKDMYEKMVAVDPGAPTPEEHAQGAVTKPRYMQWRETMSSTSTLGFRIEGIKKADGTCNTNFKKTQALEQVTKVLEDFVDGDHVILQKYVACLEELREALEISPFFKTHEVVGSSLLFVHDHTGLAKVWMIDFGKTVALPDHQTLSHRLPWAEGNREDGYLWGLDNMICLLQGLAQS

`CCOc1cc(/C=C(\C#N)CON)cc(CSc2ccccc2)c1O`: the Tm shift is 4.2 Celsius.
The result for `O=c1c2ccccc2[nH]c(=S)n1CCN1CCC(=C(c2ccc(F)cc2)c2ccc(F)cc2)CC1` reads 6.4 Celsius.
The result for `O=C1Nc2ccc(I)cc2/C1=C/c1cc(Br)c(O)c(Br)c1` reads 10.4 Celsius.
On to `COC1=CC(/C=C/C(=O)CC(=O)/C=C/c2ccc(O)c(OC)c2)=CCC1O` (configuration not stated), for which the Tm shift is 6.6 Celsius.
In the case of `Oc1ccc(-c2nc(-c3ccc(F)cc3)c(-c3ccncc3)[nH]2)cc1` it was 4.4 Celsius; in that of `O=C1c2c(O)cc(O)cc2OC(c2ccc(O)c(O)c2)C1O` (configuration not stated), 13.3 Celsius.
For the compound `O=c1c(-c2ccc(O)cc2)coc2cc(O)cc(O)c12`, the Tm shift was 3.3 Celsius.
In the case of `NC1=CC2N=CN=C(Nc3cccc(Br)c3)C2C=C1N` (configuration not stated) it was 5.2 Celsius; in that of `CNC(=O)c1cc(Oc2ccc(NC(=O)Nc3ccc(C)c(C(F)(F)F)c3)cc2)ccn1`, 5.7 Celsius.
On to `CN(C)S(O)(O)c1ccc2c(c1)/C(=C/c1cc3c([nH]1)CCCC3)C(=O)N2`, for which the Tm shift was 3.2 Celsius.
The result for `Nc1ncnc2c1C(I)CN2[C@@H]1O[C@H](CO)C(O)C1O` (some centres not stated) reads 4.7 Celsius; that for `NC1=N/C(=C2/CCNC(=O)c3[nH]c(Br)cc32)C(=O)N1`, 3 Celsius; that for `CC(C)(C)c1nc2c3cc[nH]c(=O)c3c3cc(F)ccc3c2[nH]1`, 3.3 Celsius.
As to `O=C1Cc2c([nH]c3ccc(Br)cc23)-c2ccccc2N1`, the Tm shift is 3.1 Celsius.
In the case of `NC(O)(O)c1ccc(N=Nc2c(O)[nH]c3ccc(Cl)cc23)cc1` it was 3.7 Celsius; in that of `C=S(C)c1ccc(CSc2nc(-c3ccc(F)cc3)c(-c3ccncc3)[nH]2)cc1` (configuration not stated), 5.6 Celsius.
In the case of `Brc1c(Br)c(Br)c2n[nH]nc2c1Br` it was 4.6 Celsius.
